Consider 3 compounds from US7498360B2, “Method and compositions for local treatment of Meniere's disease, tinnitus and/or hearing loss” (Synphora AB, priority 2001, dated 2009).

Data set [1] deals with vasculature in the cochlea. As to conditions: in vivo; cited from earlier work.
Data set [2] deals with patients with Meniere's disease. To be noted: two patients with Meniere's disease, with furosemide; cited from earlier work.
Data set [3] deals with patients suffering from unilateral Meniere's disease. Kind of data set: Local (intratympanic) administration of latanoprost to two patients suffering from Meniere's disease. The data set is classed as in vivo, human. More on the design: key to Tinnitus (grade): 0 = none; 1 = mild; 2 = moderate; 3 = marked. As to conditions: for Tinnitus (grade): After (7 or 13 days after start of treatment), before: 3; for Acoustic emissions (%) 1 kHz / Acoustic emissions (%) 2 kHz / Acoustic emissions (%) 3 kHz / Acoustic emissions (%) 4 kHz / Acoustic emissions (%) 5 kHz / Acoustic emissions (%) Total reproducibility: After; for Acoustic emissions (%) 1 kHz / Acoustic emissions (%) 2 kHz / Acoustic emissions (%) 3 kHz / Acoustic emissions (%) 4 kHz / Acoustic emissions (%) 5 kHz: before: 0; for Subjective hearing ability: after treatment. The method, then: […] About 0.3-0.4 ml of a sterile Xalatan® (0.005% latanoprost) solution was administered by intratympanic installation in close apposition to the round window after appropriate local anaesthesia. The patients were thereafter asked to lie on the side with the treated ear up for about 30 min to enhance the penetration of latanoprost into the internal ear. The patients had at least 40 decibel decrease in the audiogram at 0.5, 1 and 2 kHz frequency, at baseline before treatment with latanoprost. In addition they suffered from episodes of vertigo and nausea in combination with tinnitus. Audiograms, and cochlear emissions were recorded before the treatment and at the 7th or 13th day after the start of the treatment, and information about the subjective symptoms were collected.

For data set [4] the test system is unchanged. Kind of data set: Randomised, double-masked, placebo-controlled crossover clinical trial with latanoprost in Meniere's disease. The data set is classed as in vivo, human. As to conditions: for vertigo, visual analogue scale: decreasing values reflecting improvement. The method, then: During the priority year, a randomised, double-masked, placebo-controlled clinical trial was performed by the inventors of the present patent application. Nine patients (5 males and 4 females; age 39-65 years) suffering from unilateral Meniere's disease were treated daily for three consecutive days with latanoprost (around 50 micrograms/ml) or placebo adopting a crossover design. Accordingly, each patient was treated with both latanoprost and placebo in random order. Each treatment period lasted for 3 days, and after that the patients were examined at days 5 and 15 from the start of the treatment. Approximately 1 month elapsed between the two treatment periods (washout period). The treatment was given by intratympanic injection (around 0.2-0.8 ml) into the middle ear essentially as described above. Several parameters/symptoms were registered and followed, in particular the following: Pure tone average (decibels), discrimination value (%), tinnitus loudness (decibels), and by using visual analogue scale technique; subjective hearing ability, tinnitus and vertigo. The patients recorded the three last mentioned parameters daily, and the means over the periods 2-5 days and 2-15 days after initiation of treatment with latanoprost and placebo were computed.
Such improvement was never observed during placebo treatment. At day 15 the mean discrimination value after latanoprost treatment was 68.2±7.2%, while it was 52.9±1.5% after placebo treatment, the difference of 29% being statistically significant at the p<0.05 level. Likewise, a statistically significant (p<0.01) improvement in pure tone average value at day 15 was found after latanoprost treatment in comparison to placebo, the values being 58.9±3.6 and 64.3±3.5 decibels, respectively (a lower value representing improvement). Finally, at least seven out of the nine patients experienced less vertigo both during the immediate period (days 2-5) after initiation of the latanoprost treatment as well as during a longer period (days 2-15) after the initiation of the latanoprost treatment. The values on the visual analogue scale (in mm; decreasing values reflecting improvement, i.e. less sensation of vertigo) were as follows: Days 2-5 latanoprost treatment: 22.4±9.1, and placebo treatment: 33.5±10.8 (p<0.05); Days 2-15 latanoprost treatment: 24.2±10.0 and placebo treatment: 34.2±11.4 (p<0.05).

Data set [5] concerns endolymphatic duct structures / inner ear of pigmented guinea pigs. The data set is described as follows: Intratympanic administration of latanoprost to guinea pigs: tolerability, brain stem audiometry and morphology of the endolymphatic duct structures. The data set is classed as in vivo, guinea pig. The method, then: Four pigmented guinea pigs of either sex weighing around 200-300 grams were anaesthetised with pentobarbital for intratympanic (into the middle ear) administration of latanoprost, and for brain stem audiometric measurements. The audiometric measurements were carried out at 8, 16 and 32 kHz frequency before and after the administration of latanoprost (58 μg/ml; a total of 250 μl/injection corresponding to about 14 μg latanoprost) and the vehicle. Latanoprost was administered once daily for three days into one ear, while the other ear received a similar injection of the vehicle only, and on the fourth day the animals were euthanatized with an overdose of the anaesthetic. The middle ears were dissected and the mucus membranes were inspected. Thereafter the inner ear was removed and the labyrinth was perfusion fixated through the oval and round windows with a 3% buffered glutaraldehyde solution. The tissues were then immersion fixated for about 24 hours in the same solution, and decalcified in 0.1 M sodium EDTA solution for about 2 weeks. The tissues were thereafter prepared according to routine techniques for light microscopy, and ultrathin sections of Epon-embedded tissue pieces were cut for transmission electron microscopy.
Most importantly, in several animals clear-cut changes in the morphology around the endolymphatic duct were detected. […] These findings were corroborated by 3 persons. […] Similar effects have previously been seen in the ciliary muscle of the eye after topical treatment with latanoprost and other prostaglandins (Lütjen-Drecoll and Tamm, 1989; Lindsey et al., 1998; Stjernschantz et al., 1998).

Setting [6] is: two patients, after administration.
Setting [7] is: visual analogue scale, latanoprost vs placebo.

As to `CCCCC[C@H](O)/C=C/[C@@H]1[C@@H](C/C=C\CCCC(=O)O)[C@@H](O)C[C@H]1O` [PGF2α], the “effect on the vasculature in the cochlea” value in data set [1] is “no effect”.
In the case of `COc1ccc2c(c1)c(CC(=O)O)c(C)n2C(=O)c1ccc(Cl)cc1` [indomethacin], the “effect on the discrimination score” value in data set [2] is “block the effect of furosemide”.
As for `CC(C)OC(=O)CCC/C=C\C[C@@H]1[C@@H](CC[C@@H](O)CCc2ccccc2)[C@H](O)C[C@@H]1O` [latanoprost, 13,14-dihydro-17-phenyl-18,19,20-trinor-PGF2α-isopropyl ester], in data set [3] (patient one), the “Tinnitus (grade)” value is on record as 1, the “Acoustic emissions (%) 1 kHz” value stood at 45%, the “Acoustic emissions (%) 2 kHz” value is reported as 0 and the “Acoustic emissions (%) 3 kHz” value is recorded as 42%. Moreover, in data set [3] (patient one), the “Acoustic emissions (%) 4 kHz” value is 0, the “Acoustic emissions (%) 5 kHz” value was found to be 0 and the Subjective hearing ability entry is given as “Improved”. Moreover, in data set [3] (patient one, before: 5), the “Acoustic emissions (%) Total reproducibility” value came to 37%. In addition, in data set [3] (patient two), the “Tinnitus (grade)” value was determined as 2, the “Acoustic emissions (%) 1 kHz” value came out at 0%, the “Acoustic emissions (%) 2 kHz” value is on record as 57% and the “Acoustic emissions (%) 3 kHz” value amounted to 0%. In data set [3] (patient two), the “Acoustic emissions (%) 4 kHz” value worked out at 0%, the “Acoustic emissions (%) 5 kHz” value came out at 0% and the Subjective hearing ability result is given as “Improved”. Besides, the “Acoustic emissions (%) Total reproducibility” value in data set [3] (patient two, before: 10) is reported as 37%. Besides, in data set [3] (setting [6]), the audiograms entry is “no significant change”; the cochlear emissions entry is reported as “significantly improved”; the “patients' condition with respect to the tinnitus and hearing ability” value is “marked improvement”. Further, the “vertigo, visual analogue scale” value in data set [4] (Days 2-5, placebo 33.5±10.8, p<0.05) turned out to be 22.4±9.1 mm. In addition, the “vertigo, visual analogue scale” value in data set [4] (Days 2-15, placebo 34.2±11.4, p<0.05) was 24.2±10.0 mm. Besides, the “patients (out of nine) who experienced less vertigo” value in data set [4] (both days 2-5 and days 2-15 after initiation of treatment) is listed as “at least seven”. Moreover, in data set [4] (clinical trial), the cochlear emissions result is given as “variable results”. Also, the “difference in mean discrimination value versus placebo” value in data set [4] (day 15, p<0.05) is 29%. For the same compound, the mean discrimination value in data set [4] (day 15, placebo 52.9±1.5%, p<0.05) amounted to 68.2±7.2%. Moreover, the “pure tone average value” in data set [4] (day 15, placebo 64.3±3.5, p<0.01, lower value representing improvement) is 58.9±3.6 decibels. Further, the “improvement in discrimination value” in data set [4] (in three of the nine patients, after latanoprost treatment) is on record as 25-50%. The tinnitus loudness result in data set [4] (latanoprost vs placebo) was “No statistically significant change”. For the same compound, in data set [4] (setting [7]), the Subjective hearing ability result is recorded as “No statistically significant change” and the “subjective experience of tinnitus” value is recorded as “No statistically significant change”. For the same compound, in data set [5] (guinea pig, 8, 16 and 32 kHz, before and after intratympanic administration), the brain stem audiograms entry is reported as “no changes that could be attributed to the treatment”. For the same compound, the “morphology around the endolymphatic duct” value in data set [5] (guinea pig, in several animals, zone around fibroblasts in loose connective tissue surrounding the duct) is listed as “reduced density of the extracellular matrix”. Further, in data set [5] (guinea pig, intratympanic, about 14 μg once daily for three days), the “morphological changes in the cochlea including the organ of Corti with the hair cells” value is listed as “no morphological changes”. In addition, the “inflammatory changes in the mucous membranes of the middle ear or in the tympanic membrane” value in data set [5] (guinea pig, intratympanic, about 14 μg once daily for three days, examined day 4) is recorded as “No inflammatory changes”. Further, the tolerability entry in data set [5] (guinea pig, intratympanic, once daily for three days) was “well tolerated”.
